Experimental data: US20170042883A1, “Methods for Detecting and Treating Rhinovirus Infection” (The Procter & Gamble Company, priority 2011, published 2017)

Tested on: rhinovirus infection-induced inflammatory markers (IL-6, IP-10, and RANTES) in BEAS-2B
Experiment: rhinovirus infection-induced inflammatory markers in RV-16 infected BEAS-2B cells
Assay type: cell-based, human
Settings: for anti-inflammatory effects in the rhinovirus infection mediated inflammation model: result in words
Experimental: The effect of various identified compounds on rhinovirus infection-induced inflammatory markers (IL-6, IP-10, and RANTES) in the human bronchial epithelia cell line, BEAS-2B, was evaluated. Kaempferol, luteolin, quercetin, scutellarein, all-transretinoic acid, 3-hydroxyflavone, fustin, 3-methylquercetin, fisetin, apigenin, oxymetazoline HCl, chrysin, naringenin, pyrrolidinedithiocarbamate ammonium, 7-hydroxyflavone, myricetin, diosmetin, 4′,7-dihydroxyflavone, or eriodictyol was added to cell culture media at various doses at the time of RV-16 infection of BEAS-2B cells. IL-6, IP-10 and RANTES protein levels were measured three days post-infection. Cytotoxicity of the compounds was determined by the uptake of vital dye Rhinovirus infected BEAS-2B cells not exposed to the compounds served as a positive control, achieving maximum cytokine production. BEAS-2B cells not exposed to rhinovirus or the compounds served as a negative control. […] The study was repeated for a subset of compounds, and ibuprofen (20 µM) was added to the cell media with the compounds at the time of infection. IL-6, IP-10 and RANTES protein levels were measured two days post-infection.

Row | Compound | anti-inflammatory effects in the rhinovirus infection mediated inflammation model | levels of biomarkers associated with rhinovirus infection (IL-6, IP-10 and RANTES protein levels) (ibuprofen (20 µM) added with a subset of compounds at time of infection, two days post-infection, in a majority of instances)
1 | 3-methylquercetin | anti-inflammatory effects | –
2 | O=c1c(O)c(-c2ccccc2)oc2ccccc12 [3-hydroxyflavone] | anti-inflammatory effects | –
3 | O=c1cc(-c2ccc(O)cc2)oc2cc(O)ccc12 [4′,7-dihydroxyflavone] | anti-inflammatory effects | –
4 | O=c1cc(-c2ccccc2)oc2cc(O)ccc12 [7-hydroxyflavone] | anti-inflammatory effects | –
5 | O=c1cc(-c2ccc(O)cc2)oc2cc(O)cc(O)c12 [Apigenin] | anti-inflammatory effects | –
6 | O=c1c(O)c(-c2cc(O)c(O)c(O)c2)oc2cc(O)cc(O)c12 [Myricetin] | anti-inflammatory effects | –
7 | CC1=C(/C=C/C(C)=C/C=C/C(C)=C/C(=O)O)C(C)(C)CCC1 [all-transretinoic acid] | anti-inflammatory effects | –
8 | O=c1c(-c2ccc(O)cc2)coc2cc(O)ccc12 [daidzein] | anti-inflammatory effects | –
9 | COc1ccc(-c2cc(=O)c3c(O)cc(O)cc3o2)cc1O [diosmetin] | anti-inflammatory effects | –
10 | O=C1C[C@@H](c2ccc(O)c(O)c2)Oc2cc(O)cc(O)c21 [eriodictyol] | anti-inflammatory effects | –
11 | O=c1c(O)c(-c2ccc(O)c(O)c2)oc2cc(O)ccc12 [fisetin] | anti-inflammatory effects | –
12 | O=C1c2ccc(O)cc2O[C@H](c2ccc(O)c(O)c2)[C@H]1O [fustin] | anti-inflammatory effects | –
13 | O=c1c(-c2ccc(O)cc2)coc2cc(O)cc(O)c12 [genistein] | anti-inflammatory effects | –
14 | CC(C)Cc1ccc(C(C)C(=O)O)cc1 (centres unmarked) [ibuprofen] | – | further reduced
15 | O=c1c(O)c(-c2ccc(O)cc2)oc2cc(O)cc(O)c12 [kaempferol] | anti-inflammatory effects | –
16 | O=c1cc(-c2ccc(O)c(O)c2)oc2cc(O)cc(O)c12 [luteolin] | anti-inflammatory effects | –
17 | O=C1C[C@@H](c2ccc(O)cc2)Oc2cc(O)cc(O)c21 [naringenin] | anti-inflammatory effects | –
18 | Cc1cc(C(C)(C)C)c(O)c(C)c1CC1=NCCN1 [oxymetazoline] | anti-inflammatory effects | –
19 | O=c1c(O)c(-c2ccc(O)c(O)c2)oc2cc(O)cc(O)c12 [quercetin] | anti-inflammatory effects | –
20 | C[C@@H]1O[C@@H](OC[C@H]2O[C@@H](Oc3c(-c4ccc(OCCO)c(OCCO)c4)oc4cc(OCCO)cc(O)c4c3=O)[C@H](O)[C@@H](O)[C@@H]2O)[C@H](O)[C@H](O)[C@H]1O [troxerutin] | anti-inflammatory effects | –
